In publication PMC10154249, “Unique progerin C-terminal peptide ameliorates Hutchinson–Gilford progeria syndrome phenotype by rescuing BUBR1” (Nature Aging, 2023):

Experiments:
[1] = test system: HGADFN167 cells; assay: Ki67 immunofluorescence of HGADFN167 cells; assay type: cell-based, human
Procedure: Immunofluorescence was performed as described previously. Cells were plated on cover slips in 12-well plates, left overnight before the treatment. Cells were fixed in 1% formaldehyde in culture medium for 10 min at 37 °C and permeabilized with 0.2% Triton X-100 in PBS for 10 min at room temperature. Cells were washed twice in PBS and blocked for 1 h with 5% BSA in PBS and then incubated with primary antibodies at 4 °C overnight, washed three times in PBS and incubated with secondary antibodies for 1 h at room temperature. Cell nuclei were counterstained with a 500 nM concentration of 4,6-diamidino-2-phenylindole (DAPI) (Sigma). Images were acquired by a fluorescence microscope (OLYMPUS FV-1000, Carl Zeiss LSM880 or Leica DMi8) and analyzed with software NIS-Elements AR v.5.0.1 (Nikon), FLUOVIEW v.4.2b (OLYMPUS), ZEN v.2.3 SP1 (Carl Zeiss) and Leica Application Suite X v.3.6.0.24 (Leica). Cells were quantified by investigators who were blinded to the identity of the analyzed cell.

[2] = test system: BUBR1 / CyclinA2 in HGADFN003 cells; assay: Western blot of BUBR1 and CyclinA2 in HGADFN003 cells; assay type: cell-based, human
Procedure: Western blot was performed as previously described. Cells were lysed in 1× Laemmli sample buffer after washing twice in cold PBS without calcium and magnesium. Protein concentrations were determined using the bicinchoninic acid (BCA) protein assay. Protein lysates were subjected to SDS–PAGE, transferred to 0.45-μm pore size hydrophobic PVDF transfer membrane (Merck Millipore), detected with the appropriate primary antibodies coupled with horseradish peroxidase-conjugated corresponding secondary antibodies, and visualized using enhanced chemiluminescence ECL reagent (GE Healthcare). The Tanon 5500 high-definition low-illumination CCD system (Tanon FLI Capture v.1.02) was used to capture chemiluminescent signals.

[3] = test system: skin of Lmna^G609G/G609G mice; assay: Histology of skin (epidermis, subcutaneous fat layers); assay type: in vivo, mouse; conditions: 13 weeks; for subcutaneous fat layers, Mean / subcutaneous fat layers: 20 mg kg^–1 i.p.
Procedure: For UPCP injection, 14-day-old Lmna^G609G/G609G mice were injected intraperitoneally with either PBS or UPCP (20 mg kg^–1, every other day) and wild-type mice were injected with PBS. […] Bodyweight and lifespan were monitored after UPCP treatment. The survival rate was analyzed by the Kaplan–Meier method. We only included mice that were of sufficient bodyweight at the start of the experiment, typically at least 80% of the average littermate weight of the same sex and genotype. All animals meeting criteria for inclusion were then divided randomly into three groups according to genotype (Lmna^+/+, Lmna^G609G/G609G-Mock and Lmna^G609G/G609G-UPCP).
For histological analyses, mice of the indicated genotypes were perfused with PBS, then with 4% paraformaldehyde (PFA). Whole organs were incubated in 4% PFA at 4 °C for 16 h. All samples were paraffin embedded and sectioning by Servicebio. Subsequently, the tissues were deparaffinized and rehydrated before hematoxylin-eosin (HE) or Masson staining or immunohistochemistry (IHC). HE staining was performed using an HE Kit (Absin, catalog no. abs9217), and Masson staining was performed using Masson’s Trichrome Stain Kit (Absin, catalog no. abs9347) according to the manufacturer’s instructions. The thickness of the layers or the areas of fibrosis in the tissues were calculated using ImageJ software by a blinded investigator. For IHC, the sections were completed by the Servicebio. The images were acquired by a microscope (Leica DMi8) and analyzed with Leica Application Suite X v.3.6.0.24 (Leica). For BubR1, cytoplasmic staining in cells was scored on the intensity of staining and the proportion of positive cells by a blinded investigator. The intensity of the staining was graded as 0 (negative, no color), 1 (low positive, light yellow), 2 (positive, brown yellow) or 3 (high positive, brown), and the number of positive cells was graded as 0 (<5%), 1 (5–25%), 2 (25–50%), 3 (51–75%) or 4 (>75%). The final score was defined as staining number score multiplied by staining color score. For lamin B1, p21 or IL-6, the proportion of positive cells was used to quantify the expression of protein in tissues by a blinded investigator.

[4] = 20 mg kg^–1 i.p. every other day

H-YGRKKRRQRRRYNLRSRTVLCGTCGQPADKASASGSGAQSPQNCSIM-OH (cysteines drawn unpaired) [UPCP, unique progerin C-terminal peptide]
Ki67 positive cells ([1]; HGADFN167, replicate 1): 53%
Ki67 positive cells ([1]; HGADFN167, replicate 2): 45%
Ki67 positive cells ([1]; HGADFN167, replicate 3): 56%
BUBR1 expression (FTI-277/UPCP comparison, words) ([2]; HGADFN003): increasing expression of BUBR1
CyclinA2 expression (FTI-277/UPCP comparison, words) ([2]; HGADFN003): increasing expression of BUBR1, CyclinA2
BUBR1 abundance ([2]; HGADFN003 cells, UPCP 0–10 μM, Western blot): upregulated BUBR1
dermal fat loss [3, 4]: improved
epidermal thinning [3, 4]: improved
subcutaneous fat layers, Mean ([3]; sample 1, mean of 3 measurements): 0.2193 mm
subcutaneous fat layers ([3]; sample 1, measurement 1): 0.2 mm
subcutaneous fat layers ([3]; sample 1, measurement 2): 0.243 mm
subcutaneous fat layers ([3]; sample 1, measurement 3): 0.215 mm
subcutaneous fat layers, Mean ([3]; sample 2, mean of 3 measurements): 0.1593 mm
subcutaneous fat layers ([3]; sample 2, measurement 1): 0.146 mm
subcutaneous fat layers ([3]; sample 2, measurement 2): 0.185 mm
subcutaneous fat layers ([3]; sample 2, measurement 3): 0.147 mm
subcutaneous fat layers, Mean ([3]; sample 3, mean of 3 measurements): 0.1467 mm
subcutaneous fat layers ([3]; sample 3, measurement 1): 0.174 mm
subcutaneous fat layers ([3]; sample 3, measurement 2): 0.153 mm
subcutaneous fat layers ([3]; sample 3, measurement 3): 0.113 mm
